{"source": "patent US20070160531A1", "about": "(priority 1995, published 2007)", "test_system": "Rat Lung", "conditions": "in vivo, iv"}
{"substance": "^3H-daunomycin", "values": [{"measurement": "% in lung (total drug in the lung as a percentage of the original dose)", "result": 0.65, "unit": "%"}, {"measurement": "% inj/g tissue", "result": 0.63, "unit": "% inj/g"}]}
